Measured values reported in US12325697B2 (Nimbus Clio, Inc., priority 2021, dated 2025).

Each molecule was assayed against Recombinant human Cbl-b (aa 36-427) (Homo sapiens (Human), UniProt Q13191) (assay: Cbl-b Biochemical Assay (TR-FRET)). Settings: read-out: TR-FRET hCbl-b IC50.
Recombinant human Cbl-b (aa 36-427), sequence (Q13191 36-427): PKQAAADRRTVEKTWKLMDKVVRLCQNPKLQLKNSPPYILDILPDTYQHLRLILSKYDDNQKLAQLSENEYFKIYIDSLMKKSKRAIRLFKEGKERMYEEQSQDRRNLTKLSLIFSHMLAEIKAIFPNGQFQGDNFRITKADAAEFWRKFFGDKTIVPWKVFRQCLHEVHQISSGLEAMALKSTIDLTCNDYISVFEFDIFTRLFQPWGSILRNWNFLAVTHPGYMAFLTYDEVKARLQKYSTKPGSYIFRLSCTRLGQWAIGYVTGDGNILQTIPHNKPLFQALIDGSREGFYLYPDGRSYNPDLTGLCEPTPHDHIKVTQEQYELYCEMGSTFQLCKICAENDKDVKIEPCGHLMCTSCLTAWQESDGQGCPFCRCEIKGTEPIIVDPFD
Outline: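 IC50 from 4-parameter fit of % inhibition (DMSO max, reference-inhibitor min), duplicate ten-point series. Compound preincubated with 6 nM Cbl-b, then Src-Zap70 (1-2.5 nM)/0.5 mM ATP reaction 60 min RT; EDTA quench with labelled UBE2D2-Ub and streptavidin-terbium, 60 min, HTRF at 520 nm.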
`CCNc1cc(-c2ccccc2-c2nncn2C)cc(N2Cc3c(cc(CN[C@H]4CCC[C@H]4O)cc3C(F)(F)F)C2=O)n1` [AR-1, 2-(6-(Ethylamino)-4-(2-(4-methyl-4H-1,2,4-triazol-3-yl)phenyl)pyridin-2-yl)-6-((((1S,2R)-2-hydroxycyclopentyl)amino)methyl)-4-(trifluoromethyl)isoindolin-1-one] was tested, and the IC50 was ≤ 0.2 µM. Work on `CCOc1cc(-c2c(-c3nncn3C)cnn2C)cc(N2Cc3c(cccc3C(F)(F)F)C2=O)n1` [ABH-2, 2-(6-Ethoxy-4-(1-methyl-4-(4-methyl-4H-1,2,4-triazol-3-yl)-1H-pyrazol-5-yl)pyridin-2-yl)-4-(trifluoromethyl)isoindolin-1-one] yielded an IC50 of 0.2 to 1 µM. `CCNc1cc(-c2ccc(Cl)cc2-c2nncn2C)cc(N2Cc3c(cccc3C(F)(F)F)C2=O)n1` [ACR-7, 2-(4-(4-Chloro-2-(4-methyl-4H-1,2,4-triazol-3-yl)phenyl)-6-(ethylamino)pyridin-2-yl)-4-(trifluoromethyl)isoindolin-1-one] was tested, and the IC50 was ≤ 0.2 µM. `Cn1cnnc1-c1ccccc1-c1cc(CO)cc(N2Cc3c(cccc3C(F)(F)F)C2=O)c1` [Example N-5, 2-(5-(Hydroxymethyl)-2′-(4-methyl-4H-1,2,4-triazol-3-yl)-[1,1′-biphenyl]-3-yl)-4-(trifluoromethyl)isoindolin-1-one] showed an IC50 of 1 to 10 µM. With `Cn1ncnc1-c1ccccc1-c1cccc(N2Cc3c(cccc3C(F)(F)F)C2=O)c1` [AAX-2, 2-(2′-(1-Methyl-1H-1,2,4-triazol-5-yl)-[1,1′-biphenyl]-3-yl)-4-(trifluoromethyl)isoindolin-1-one] the IC50 was 10 to 50 µM. For `Cn1cnnc1-c1ccccc1-c1cc(Cl)nc(N2Cc3c(cccc3C(F)(F)F)C2=O)c1` [AAT-1, 2-(6-Chloro-4-(2-(4-methyl-4H-1,2,4-triazol-3-yl)phenyl)pyridin-2-yl)-4-(trifluoromethyl)isoindolin-1-one], the IC50 was 0.2 to 1 µM. `Cn1cnnc1-c1cc(C(N)=O)ccc1-c1cccc(N2Cc3c(cccc3C(F)(F)F)C2=O)c1` [ACD-1, 2-(4-Methyl-4H-1,2,4-triazol-3-yl)-3′-(1-oxo-4-(trifluoromethyl)isoindolin-2-yl)-[1,1′-biphenyl]-4-carboxamide] gave an IC50 of 1 to 10 µM. `C[C@@H]1CCCN(Cc2cc3c(c(C(F)(F)F)c2)CN(c2cccc(-c4ccccc4-c4nncn4C)c2)C3=O)C1` [Example S-2, (R)-2-(2′-(4-Methyl-4H-1,2,4-triazol-3-yl)-[1,1′-biphenyl]-3-yl)-6-((3-methylpiperidin-1-yl)methyl)-4-(trifluoromethyl)isoindolin-1-one] was tested, and the IC50 was 0.2 to 1 µM. In the case of `CCNc1cc(-c2c(-c3nncn3C)cnn2C)cc(CNC(=O)OC(C)(C)C)n1` [ABV-1, tert-Butyl ((6-(ethylamino)-4-(1-methyl-4-(4-methyl-4H-1,2,4-triazol-3-yl)-1H-pyrazol-5-yl)pyridin-2-yl)methyl)carba mate], the IC50 is reported as 10 to 50 µM. `CCNc1cc(-c2c(-c3nncn3C)cnn2C)cc(N2Cc3c(cc(CN4CCC[C@H](C)C4)cc3C(F)(F)F)C2=O)n1` [ACF-1, (S)-2-(6-(Ethylamino)-4-(1-methyl-4-(4-methyl-4H-1,2,4-triazol-3-yl)-1H-pyrazol-5-yl)pyridin-2-yl)-6-((3-methylpiperidin-1-yl)methyl)-4-(trifluoromethyl)isoindolin-1-one] was tested, and the IC50 was ≤ 0.2 µM. With `CCNc1cc(-c2c(-c3nncn3C)cnn2C)cc(NC(=O)c2cc(C)cc(C3CC3)n2)n1` [ABW-3, 6-Cyclopropyl-N-(6-(ethylamino)-4-(1-methyl-4-(4-methyl-4H-1,2,4-triazol-3-yl)-1H-pyrazol-5-yl)pyridin-2-yl)-4-methylpicolinamide] the IC50 was 0.2 to 1 µM. `Cn1cnnc1-c1ccccc1-c1cc(N2Cc3c(cccc3C(F)(F)F)C2=O)nc2[nH]ccc12` [Example L-5, 2-(4-(2-(4-Methyl-4H-1,2,4-triazol-3-yl)phenyl)-1H-pyrrolo[2,3-b]pyridin-6-yl)-4-(trifluoromethyl)isoindolin-1-one] showed an IC50 of 10 to 50 µM. `CCNc1cc(-c2ccccc2-c2nncn2C)cc(N2Cc3c(cc(CN4CCC[C@@H](C)C4)cc3C(F)(F)F)C2=O)n1` [AE-2, (R)-2-(6-(Ethylamino)-4-(2-(4-methyl-4H-1,2,4-triazol-3-yl)phenyl)pyridin-2-yl)-6-((3-methylpiperidin-1-yl)methyl)-4-(trifluoromethyl)isoindolin-1-one] was tested, and the IC50 was ≤ 0.2 µM. In the case of `CCNc1cc(-c2c(-c3nncn3C)cnn2C)cc(N2Cc3c(cc(COC(C)C)cc3C(F)(F)F)C2=O)n1` [ACW-1, 2-(6-(Ethylamino)-4-(1-methyl-4-(4-methyl-4H-1,2,4-triazol-3-yl)-1H-pyrazol-5-yl)pyridin-2-yl)-6-(isopropoxymethyl)-4-(trifluoromethyl)isoindolin-1-one], the IC50 is reported as ≤ 0.2 µM. In the case of `CCNc1cc(-c2ccccc2-c2nncn2C)cc(N2Cc3c(cc(CO)cc3C(F)(F)F)C2=O)n1` [AD-3, 2-(6-(Ethylamino)-4-(2-(4-methyl-4H-1,2,4-triazol-3-yl)phenyl)pyridin-2-yl)-6-(hydroxymethyl)-4-(trifluoromethyl)isoindolin-1-one], the IC50 is reported as ≤ 0.2 µM. For `Cn1cnnc1-c1ccccc1-c1cccc(N2Cc3c(cc(CN4CC[C@H](F)C4)cc3C(F)(F)F)C2=O)c1` [Example V-2, (S)-6-((3-Fluoropyrrolidin-1-yl)methyl)-2-(2′-(4-methyl-4H-1,2,4-triazol-3-yl)-[1,1′-biphenyl]-3-yl)-4-(trifluoromethyl)isoindolin-1-one], the IC50 was ≤ 0.2 µM. For `CCNc1cc(-c2ccccc2-c2nncn2C)cc(N2Cc3c(cc(COC)cc3C(F)(F)F)C2=O)n1` [AS-2, 2-(6-(Ethylamino)-4-(2-(4-methyl-4H-1,2,4-triazol-3-yl)phenyl)pyridin-2-yl)-6-(methoxymethyl)-4-(trifluoromethyl)isoindolin-1-one], the IC50 was ≤ 0.2 µM. For `CCNc1cc(-c2ccccc2-c2nncn2C)cc(N2Cc3c(cc(CN4CCO[C@@H](C)C4)cc3C(F)(F)F)C2=O)n1` [AL-1, (S)-2-(6-(Ethylamino)-4-(2-(4-methyl-4H-1,2,4-triazol-3-yl)phenyl)pyridin-2-yl)-6-((2-methylmorpholino)methyl)-4-(trifluoromethyl)isoindolin-1-one], the IC50 was ≤ 0.2 µM. With `Cn1cnnc1-c1cnn(C)c1-c1cc(CN)nc(N2Cc3c(cccc3C(F)(F)F)C2=O)c1` [ABG-3, 2-(6-(Aminomethyl)-4-(1-methyl-4-(4-methyl-4H-1,2,4-triazol-3-yl)-1H-pyrazol-5-yl)pyridin-2-yl)-4-(trifluoromethyl)isoindolin-1-one] the IC50 was 10 to 50 µM. With `Cn1cnnc1-c1cnccc1-c1cccc(N2Cc3c(cccc3C(F)(F)F)C2=O)c1` [AAY-6, 2-[3-[3-(4-Methyl-1,2,4-triazol-3-yl)-pyridin-4-yl]-phenyl]-4-(trifluoromethyl)-3H-isoindol-1-one] the IC50 was 1 to 10 µM. `CCNc1cc(-c2ccccc2-c2nncn2C)cc(N2Cc3c(cccc3C(F)(F)F)C2=O)n1` [AAU-1, 2-(6-(Ethylamino)-4-(2-(4-methyl-4H-1,2,4-triazol-3-yl)phenyl)pyridin-2-yl)-4-(trifluoromethyl)isoindolin-1-one] was tested, and the IC50 was ≤ 0.2 µM. With `C[C@@H]1CN(Cc2cc3c(c(C(F)(F)F)c2)CN(c2cccc(-c4ccccc4-c4nncn4C)c2)C3=O)CCO1` [Example X-2, (R)-2-(2′-(4-Methyl-4H-1,2,4-triazol-3-yl)-[1,1′-biphenyl]-3-yl)-6-((2-methylmorpholino)methyl)-4-(trifluoromethyl)isoindolin-1-one] the IC50 was ≤ 0.2 µM. `CCNc1cc(-c2c(-c3nncn3C)cnn2C)cc(N2Cc3c(cc(CN4CC[C@@H](F)C4)cc3C(F)(F)F)C2=O)n1` [ACA-1, (R)-2-(6-(Ethylamino)-4-(1-methyl-4-(4-methyl-4H-1,2,4-triazol-3-yl)-1H-pyrazol-5-yl)pyridin-2-yl)-6-((3-fluoropyrrolidin-1-yl)methyl)-4-(trifluoromethyl)isoindolin-1-one] was tested, and the IC50 was ≤ 0.2 µM. For `CCNc1cc(-c2c(-c3nncn3C)cnn2C)cc(N2Cc3c(cc(CO)cc3C(F)(F)F)C2=O)n1` [ACH-1, 2-(6-(Ethylamino)-4-(1-methyl-4-(4-methyl-4H-1,2,4-triazol-3-yl)-1H-pyrazol-5-yl)pyridin-2-yl)-6-(hydroxymethyl)-4-(trifluoromethyl)isoindolin-1-one], the IC50 was ≤ 0.2 µM. `Cn1cnnc1-c1ccccc1-c1cc(N2Cc3c(cccc3C(F)(F)F)C2=O)cc(C(F)(F)F)c1` [Example K-3, 2-(2′-(4-Methyl-4H-1,2,4-triazol-3-yl)-5-(trifluoromethyl)-[1,1′-biphenyl]-3-yl)-4-(trifluoromethyl)isoindolin-1-one] was tested, and the IC50 was 1 to 10 µM. `C[C@H]1CCCN(Cc2cc3c(c(C(F)(F)F)c2)CN(c2cccc(-c4ccccc4-c4nncn4C)c2)C3=O)C1` [Example R-2, (S)-2-(2′-(4-Methyl-4H-1,2,4-triazol-3-yl)-[1,1′-biphenyl]-3-yl)-6-((3-methylpiperidin-1-yl)methyl)-4-(trifluoromethyl)isoindolin-1-one] was tested, and the IC50 was ≤ 0.2 µM. With `CCNc1cc(-c2ccccc2-c2nncn2C)cc(N2Cc3c(cc(CN4CCC5(CC4)CC5)cc3C(F)(F)F)C2=O)n1` [AI-2, 6-((6-Azaspiro[2.5]octan-6-yl)methyl)-2-(6-(ethylamino)-4-(2-(4-methyl-4H-1,2,4-triazol-3-yl)phenyl)pyridin-2-yl)-4-(trifluoromethyl)isoindolin-1-one] the IC50 was ≤ 0.2 µM. `Cn1cnnc1-c1ccccc1-c1cccc(NC(=O)c2cc(=O)[nH]c(C3CC3)n2)c1` [AAP-1, 2-Cyclopropyl-N-(2′-(4-methyl-4H-1,2,4-triazol-3-yl)-[1,1′-biphenyl]-3-yl)-6-oxo-1,6-dihydropyrimidine-4-carboxamide] gave an IC50 of 1 to 10 µM.
